Entries after “also recorded” stand apart in the source; their conditions may differ.
What was measured:
primary OPCs [1] = test: Screen for protection against OPC death induced by lethal concentrations of psychosine; format: cell-based, rat; settings: for rescue of cell survival from psychosine: primary OPCs, lethal psychosine exposure
Method: (§1) Experiments were conducted to identify FDA-approved agents that rescue precursor cells of the CNS from the effects of the lipids thought to be toxic in KD, GD and MLD. To identify therapeutic agents that could be candidates for relatively rapid translation to the clinic, candidate agents were screened (based on cellular and molecular analyses) and unbiased drug screens were conducted using the NINDSII library of 1040 compounds approved by the FDA or in clinical trials. The intent of these screens was to discover previously unknown activities of agents for which pharmacokinetic and toxicological information is already available. The initial screening assays used are for (i) protection against OPC death induced by lethal concentrations of toxic lipids (48 hr exposure) and (ii) protection of OPC division induced by exposure to sublethal concentrations of toxic lipids.
In this screen, a library of 1040 compounds, either approved for use or in clinical trials, were examined at three different doses for their ability to protect against psychosine-induced cell death. […]

primary OPCs [2] = test: Screen for protection of OPC division at sublethal concentrations of psychosine; format: cell-based, rat; settings: psychosine concentrations that suppress division without appreciable death
Method: as §1, with “lipids. […]” for “lipids.”

primary OPCs [3] = test: Survival of OPCs exposed to toxic lipids (calcein AM / propidium iodide, CELIGO); format: cell-based
Method: Whether toxic lipids have similar effects on the function of oligodendrocyte precursor cells (OPCs, the direct ancestors of myelin-forming oligodendrocytes), due to the common features of myelin breakdown and failure to repair such damage in LSDs, was determined. These experiments all used standard techniques (see Mayer et al. PNAS, 91: 7496-7500 (1994); Ibarrola et al. Dev. Biol. 180: 1-121 (1996); Smith et al. PNAS 97: 10032-10037 (2000); Power et al. Dev. Biol. 245: 362-375 (2002); Dietrich et al. J. Biol. 5: e22 (2006); Li et al. PLoS Biol. 5: e35 (2007)), as adapted to enable rapid automated analysis of microscopy images captured using the CELIGO® imaging system (Brooks Automation, Chelmsford, Mass.). This system enables collection of data using brightfield and three-color fluorescence and provides similar information to be obtained at the single cell level in adherent cell cultures as yielded by flow cytometry. This approach enables quantitatively analysis of 80 different experimental conditions (in triplicate) per hour.
Studies on division and survival of OPCs exposed to 0.1, 0.5, 1, 2, 5 or 10 μM PC, GPS or LS were conducted for 1, 2, 3 or 5 days. These experiments followed standard procedures (see Mayer et al. PNAS, 91: 7496-7500 (1994); Dietrich et al. J. Biol. 5: e22 (2006); and Han et al. J. Biol. 7 (4):12 (2008)) except that cell death was quantified using calcein AM and propidium iodide (PI) labeling of live cultures was used to identify live and dead cells, respectively. […] These dyes effectively overcome the problems with dyes for which cell numbers are inferred from metabolic activity (e.g., MTT, Alamar Blue), and provide quantitative information on cell numbers. Independent confirmation was obtained in all cases by visual examination of cultures. In these, and all other cases, all experiments were repeated at least three times, and all data points were collected in triplicate. All experiments were conducted in conditions of 5% O2, to more closely mimic physiological oxygen concentrations.
The sensitivity of primary OPCs to PC was determined. The sensitivity of the cells to glucopsychosine (GPC) and lysosulfatide (LS) was also examined. […] Thus, OPCs are even more sensitive to PC than oligodendrocytes, which are sensitive at 10 μM psychosine. More critically, they are an order of magnitude more sensitive than indicated by studies described in Zaka et al. (Mol. Cell Neurosci. 30 (3): 398-407 (2005)) on immortalized cell lines.

[4] = tested on: human fetal neuroepithelial stem cells (hNSCs); test: Sensitivity of human CNS precursor cells to toxic lipids; format: cell-based
[5] = tested on: primary oligodendrocyte progenitor cells; test: Protection of OPCs against toxicity of glucopsychosine and lysosulfatide; format: cell-based; settings: OPC survival
Text: Since lysosomal storage disorders are so rare, there is a strong disincentive to invest heavily in treatments. Therefore, there is a clear need to identify agents that would be of use in the treatment of multiple lysosomal storage disorders. […] Nonetheless, due to the importance of such a goal, the agents that protect against both cell death and suppression of cell division caused by exposure to psychosine were examined in order to determine their potential utility in protection against the toxic effects of glucopsychosine (elevated in Gaucher's disease) and of lysosulfatide (elevated in metachromatic leukodystrophy). These diseases were chosen as they come from two functionally different disease groups as defined by a cellular assay for lysosomal function wherein BODIPY-LacCer uptake is detected.
The ability of agents that protect against psychosine mediated suppression of cell division and cell survival to also protect against the toxicity of glucopsychosine and lysosulfatide was examined.

twitcher −/− mice = test: In vivo treatment of twitcher -/- mice (model of Krabbe disease); settings: for appearance and behavior (films, still images): 24-day-old twi−/− mice
Text: In order to determine whether agents identified in in vitro studies are capable of providing an in vivo benefit, the effects of IGF-1 were examined in twitcher −/− mice, an accepted model of Krabbe disease. The twitcher −/− mice harbor a mutation in galactocerebosidase that mimics Krabbe disease. The strategy for in vivo analyses was to determine whether FDA-approved compounds of potential interest improve neurological symptoms and/or extend survival times of twi−/− mice. These studies used techniques employed in studies on toxicity of chemotherapeutic agents for the CNS (See Dietrich et al. J. Biol. 5 (7): e22 (2006); Han et al. CNS J. Biol. 7: e12 (2008)).
In in vivo experiments, IGF-I was administered daily, beginning 10 days after birth, through i.p. injection (100 μg/kg, which is below dosages used in other studies using peripheral administration (See Aberg et al. J. Neurosci. 20: 2896-2903 (2000)). This time point is earlier than the expression of neurological symptoms but is considerably later than that used in attempts to treat these mice by HSC transplants, enzyme replacement therapy or both combined (See Qin et al. Mol. Genet. Metab. 107: 186-196 (2012)). Mice were evaluated at 24 days of age to enable analysis of cell division in vivo. Comparative analysis after 40 days was not possible due to death of the control (saline-treated) twi−/− mice shortly after 40 days of age.
Drugs are delivered once daily by i.p. administration (using 100 μg/kg, which provide benefit (see FIG. 8). All animals are marked and genotyped within the first week after birth to identify +/+, +/− and −/− pups. Outcome measures such as (i) weight gain, motor activity, rotorod analysis, auditory brainstem response and survival are analyzed.
Mice were sacrificed at Day 25 to examine OPC division in vivo (FIG. 8).

[6] = tested on: immortalized cell line characterized as an oligodendrocyte progenitor cell line; settings: Zaka et al.; immortalized cell line, 50 μM psychosine; cited from earlier work
[7] = twi−/− mice, 24 days of age, 100 μg/kg i.p. daily

## COc1ccc(C(Cl)=C(c2ccc(OC)cc2)c2ccc(OC)cc2)cc1 [chlorotrianisene]
Primary OPCs [1]
  rescue of cell survival from psychosine: inhibit cell death and reduce suppression of cell division; also recorded: rescued both cell survival and cell division
Primary OPCs [2]
  rescue of cell division from psychosine: inhibit cell death and reduce suppression of cell division
Primary OPCs [2]; listed as Chlorotrianisene
  rescue of cell division from psychosine: rescued both cell survival and cell division

## CC(C)(C)CC(C)(C)c1ccc(O)c(Cc2ccc(Cl)cc2Cl)c1 [clofoctol]
Primary OPCs [1]
  rescue of cell survival from psychosine: inhibit cell death and reduce suppression of cell division; also recorded: rescued both cell survival and cell division
Primary OPCs [2]
  rescue of cell division from psychosine: inhibit cell death and reduce suppression of cell division; also recorded: rescued both cell survival and cell division

## C=C[C@@]1(C)CC(=O)[C@]2(O)[C@@]3(C)[C@@H](O)CCC(C)(C)[C@@H]3[C@H](O)[C@H](OC(C)=O)[C@@]2(C)O1 [colforsin]
Primary OPCs [1]
  rescue of cell survival from psychosine: inhibit cell death and reduce suppression of cell division; also recorded: rescued both cell survival and cell division
Primary OPCs [2]
  rescue of cell division from psychosine: inhibit cell death and reduce suppression of cell division; also recorded: rescued both cell survival and cell division

## CCCCCCCCCCCCC/C=C/[C@@H](O)C(N)CO[C@@H]1O[C@H](CO)[C@@H](O)[C@H](O)[C@@H]1O (some centres unmarked) [glucopsychosine]
Primary OPCs [3]
  exposure level as low as which toxic for OPCs: 3.304
  exposure range toxic for primary OPCs and other primary CNS cells: low micromolar range
[4]
  vulnerability of hNSCs compared with rat OPCs: at least as vulnerable

## CCCCCCCCCCCCC/C=C/[C@@H](O)[C@@H](N)CO[C@@H]1O[C@H](CO)[C@H](O)[C@H](OS(=O)(=O)O)[C@H]1O [lysosulfatide]
Primary OPCs [3]
  exposure level as low as which toxic for OPCs: 3.304
  exposure range toxic for primary OPCs and other primary CNS cells: low micromolar range

## CC(C)(C)NCC(O)c1ccccc1Cl (centres unmarked) [tulobuterol]
Primary OPCs [1]
  rescue of cell survival from psychosine: inhibit cell death and reduce suppression of cell division; also recorded: rescued both cell survival and cell division
Primary OPCs [2]
  rescue of cell division from psychosine: inhibit cell death and reduce suppression of cell division; also recorded: rescued both cell survival and cell division

## IGF-1: insulin-like growth factor-I, polypeptide
Primary OPCs [1]; primary OPCs exposed to psychosine
  dosage at which beneficial effects on survival are seen: 10 ng/mL
Primary OPCs [1]
  rescue of cell survival from psychosine: ability to protect both cell division and cell survival; also recorded: rescued both division and survival; also recorded: protects against psychosine mediated suppression of cell division and cell survival; also recorded: inhibit cell death and reduce suppression of cell division
Primary OPCs [2]
  rescue of cell division from psychosine: ability to protect both cell division and cell survival; also recorded: rescued both division and survival; also recorded: protects against psychosine mediated suppression of cell division and cell survival; also recorded: inhibit cell death and reduce suppression of cell division; also recorded: Rescue of cell division is also achieved at physiologically relevant dosages
[5]
  protection against toxicity of glucopsychosine: protects against the toxicity of glucopsychosine and lysosulfatide; also recorded: similarly effective against lysosulfatide and glucopsychosine as it was against psychosine
[5]; survival data at 5 days
  protection against toxicity of lysosulfatide: protects against the toxicity of glucopsychosine and lysosulfatide; also recorded: similarly effective against lysosulfatide and glucopsychosine as it was against psychosine
Twitcher −/− mice; 100 μg/kg i.p. daily
  appearance and behavior (films, still images): normal body extension, sleek fur and evidence of extensive locomotor behavior
Twitcher −/− mice; 100 μg/kg i.p. daily, listed as IGF-I
  appearance and behavior (films, still images): essentially normal in appearance
Twitcher −/− mice; [7]
  locomotor activity (velocity of movement, cm/sec): statistically normal locomotor activity
  weight gain: normal weight gain
Twitcher −/− mice; twi−/− mice, 24 days of age, 100 μg/kg i.p. daily, listed as IGF-I
  locomotor activity (velocity of movement, cm/sec): restores movement to normal levels
Twitcher −/− mice; twi−/− mice, corpus callosum, Day 25, 100 μg/kg i.p. daily from 10 days after birth
  more dividing OPCs than in saline-treated mice: ~45%
[6]
  dose giving marked protection from psychosine-induced cell death: one
  exposure level giving slight (marginal) reduction of psychosine-induced cell death: 100 ng/mL

## VEGF
Primary OPCs [1]
  rescue of cell survival from psychosine: ability to protect both cell division and cell survival; also recorded: inhibit cell death and reduce suppression of cell division
Primary OPCs [2]
  rescue of cell division from psychosine: ability to protect both cell division and cell survival; also recorded: inhibit cell death and reduce suppression of cell division
